Measurements from patent US10189836B2, “Therapeutic compounds, compositions and methods of use thereof” (Genentech, Inc., priority 2015, dated 2019).

Columns and labels:
[1] = target: isolated recombinant JAK1 kinase domain (Homo sapiens (Human), UniProt P23458); assay: JAK1 enzyme assay (Caliper LabChip, Ki); type: biochemical; settings: isolated recombinant JAK1 kinase domain, 1.5 nM enzyme, ATP 25 μM
[2] = target: isolated recombinant JAK2 kinase domain (Homo sapiens (Human), UniProt O60674); assay: JAK2 enzyme assay (Caliper LabChip, Ki); type: biochemical; settings: isolated recombinant JAK2 kinase domain, 0.2 nM enzyme, ATP 25 μM
Sequence of isolated recombinant JAK2 kinase domain (O60674 849-1124): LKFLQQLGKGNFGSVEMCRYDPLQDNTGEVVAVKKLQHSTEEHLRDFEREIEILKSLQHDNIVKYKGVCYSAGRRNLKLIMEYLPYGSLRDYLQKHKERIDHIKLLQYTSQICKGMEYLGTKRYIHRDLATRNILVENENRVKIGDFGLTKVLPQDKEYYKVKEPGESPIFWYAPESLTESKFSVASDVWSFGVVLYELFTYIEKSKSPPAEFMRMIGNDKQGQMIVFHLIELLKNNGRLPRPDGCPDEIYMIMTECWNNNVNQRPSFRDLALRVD

Sequence of isolated recombinant JAK1 kinase domain (P23458 875-1153): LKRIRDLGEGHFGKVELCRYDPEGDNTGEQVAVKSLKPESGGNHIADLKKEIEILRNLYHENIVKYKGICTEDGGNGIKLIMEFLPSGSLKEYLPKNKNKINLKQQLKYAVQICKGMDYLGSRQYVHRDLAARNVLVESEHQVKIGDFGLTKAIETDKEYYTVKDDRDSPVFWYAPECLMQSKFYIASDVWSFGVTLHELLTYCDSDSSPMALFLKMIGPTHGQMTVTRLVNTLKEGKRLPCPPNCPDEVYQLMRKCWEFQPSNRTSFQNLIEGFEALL

Row | Compound | Ki [1] | Ki [2]
1 | O=C(Cn1cc(Nc2nc3c(N4CC5CCC(C4)N5C(=O)CCC(F)(F)F)cccn3n2)cn1)N1CCC(N2CCOCC2)CC1 [Example 74, 4,4,4-trifluoro-1-[3-[2-[[1-[2-(4-morpholino-1-piperidyl)-2-oxo-ethyl]pyrazol-4-yl]amino]-[1,2,4]triazolo[1,5-a]pyridin-8-yl]-3,8-diazabicyclo[3.2.1]octan-8-yl]butan-1-one] | 1 nM | 2.7 nM
2 | CN1CCN(C(=O)Cn2cc(Nc3nc4c(N5CC6CCC(C5)N6Cc5ccccc5F)cccn4n3)cn2)CC1 [Example 137, 2-(4-((8-((1R,5 S)-8-(2-fluorobenzyl)-3,8-diazabicyclo[3.2.1]octan-3-yl)-[1,2,4]triazolo[1,5-a]pyridin-2-yl)amino)-1H-pyrazol-1l-yl)-1-(4-methylpiperazin-1-yl)ethan-1-one] | 1 nM | 0.7 nM
3 | CN1CCN(C(=O)Cn2cc(Nc3nc4c(N5CC6CCC(C5)N6C(=O)CC5CC(F)(F)C5)cccn4n3)cn2)CC1 [Example 8, 2-(3,3-difluorocyclobutyl)-1-[3-[2-[[1-[2-(4-methylpiperazin-1-yl)-2-oxo-ethyl]pyrazol-4-yl]amino]-[1,2,4]triazolo[1,5-a]pyridin-8-yl]-3,8-diazabicyclo[3.2.1]octan-8-yl]ethanone] | 0.6 nM | 0.7 nM
4 | CN(C1CCN(C(=O)Cn2cc(Nc3nc4c(N5CC6CCC(C5)N6C(=O)N5CC(C(F)(F)F)C5)cccn4n3)cn2)CC1)C1COC1 [Example 62, 1-[4-[methyl(oxetan-3-yl)amino]piperidin-1-yl]-2-(4-[[8-(8-[[3-(trifluoromethyl)azetidin-1-yl]carbonyl]-3,8-diazabicyclo[3.2.1]octan-3-yl)-[1,2,4]triazolo[1,5-a]pyridin-2-yl]amino]-1H-pyrazol-1-yl)ethan-1-one] | 0.7 nM | 0.5 nM
5 | O=C(Cn1cc(Nc2nc3c(N4CC5CCC(C4)N5C(=O)CCC(F)(F)F)cccn3n2)cn1)N1CCN(C2CCC2)CC1 [Example 152, 1-[3-[2-[[1-[2-(4-cyclobutylpiperazin-1-yl)-2-oxo-ethyl]pyrazol-4-yl]amino]-[1,2,4]triazolo[1,5-a]pyridin-8-yl]-3,8-diazabicyclo[3.2.1]octan-8-yl]-4,4,4-trifluoro-butan-1-one] | 0.6 nM | 1.7 nM
6 | CSCCN1CCN(C(=O)Cn2cc(Nc3nc4c(N5CC6CCC(C5)N6C(=O)C5CC(C(F)(F)F)C5)cccn4n3)cn2)CC1 (stereo not drawn) [Example 197, 1-[4-(2-methylsulfanylethyl)-piperazin-1-yl]-2-[4-[[8-[8-[3-(trifluoromethyl)-cyclobutanecarbonyl]-3,8-diazabicyclo[3.2.1]octan-3-yl]-[1,2,4]triazolo[1,5-a]pyridin-2-yl]amino]pyrazol-1-yl]ethanone] | 0.3 nM | 0.3 nM
7 | CN1CCN(C(=O)Cn2cc(Nc3nc4c(N5CC6CCC(C5)N6C(=O)CC5CSCCS5)cccn4n3)cn2)CC1 (stereo not drawn) [Example 9, 2-(1,4-dithian-2-yl)-1-[3-[2-[[1-[2-(4-methylpiperazin-1-yl)-2-oxo-ethyl]pyrazol-4-yl]amino]-[1,2,4]triazolo[1,5-a]pyridin-8-yl]-3,8-diazabicyclo[3.2.1]octan-8-yl]ethanone] | 0.6 nM | 0.9 nM
8 | CN1CCN(C(=O)Cn2cc(Nc3nc4c(N5CC6CCC(C5)N6C(=O)N5CCC(C(F)(F)F)C5)cccn4n3)cn2)CC1 (stereo not drawn) [Example 181, 1-(4-methylpiperazin-1-yl)-2-[4-[[8-[8-(3-(trifluoromethyl)pyrrolidine-1-carbonyl]-3,8-diazabicyclo[3.2.1]octan-3-yl]-[1,2,4]triazolo[1,5-a]pyridin-2-yl]amino]pyrazol-1-yl]ethanone] | 0.8 nM | 1.3 nM
9 | CN1CCN(C(=O)Cn2cc(Nc3nc4c(N5CC6CCC(C5)N6S(=O)(=O)c5ccc(C#N)cc5)cccn4n3)cn2)CC1 [Example 149, 4-[3-[2-([1-[2-(4-methylpiperazin-1-yl)-2-oxoethyl]-1H-pyrazol-4-yl]amino)-[1,2,4]triazolo[1,5-a]pyridin-8-yl]-3,8-diazabicyclo[3.2.1]octane-8-sulfonyl]benzonitrile] | 1.1 nM | 2 nM
